“Also recorded” adds a separate entry of the source.
How the values were obtained:
[1] = system: E. faecalis OG1RF and Δeep biofilms; experiment: Biofilm biomass quantified by safranin staining, OD450 nm, 96-well polystyrene plates; format: cell-based, Enterococcus faecalis
Description: (§1) Biofilms of the two strains were grown overnight in tryptic soy broth without added glucose in the wells of 96-well polystyrene plates at 37° C. The liquid cultures were removed from the plate, and the material remaining in the wells (i.e., the biomass) was washed five times with sterile water.
Both OG1RF and Δeep were streaked on Brain Heart Infusion (BHI) agar plates and incubated at room temperature for two days. Three colonies from each strain were inoculated in BHI broth and incubated overnight at 37° C. 96-well microtiter plate biofilm assays were performed using the overnight cultures diluted in Tryptic Soy Broth (TSB). Biofilm plates were incubated overnight at 37° C. in a moist environment. The microtiter plate was washed with sterile water. […] After incubation, the microtiter plate was washed again with sterile water and left to dry until water was absent in the wells. The plate was stained with safranin, washed again with sterile water, and then read on a plate reader to determine the amount of biofilm in the wells.

[2] = system: E. faecalis OG1RF and Δeep biofilms; experiment: Viable cells (CFU) recovered from biofilm biomass after treatment; settings: for decrease in viable biofilm cells: three-hour exposure
Description: (§2) Cells were scraped up from the wells of the 96-well plate following the post-treatment washing step, as described above. The scraped up cells were serially diluted and plated to assess the number of colony forming units (CFU) recovered per ml (CFU/ml).
The bacteria were then diluted (10^0-10^−7), and plated on Brain Heart Infusion (BHI) plates. The plates were incubated overnight at 37° C.
These solutions were diluted by serial 10-fold dilutions, and then aliquots of each dilution were plated on BHI agar plates to enumerate the number of viable bacteria present in each solution. In addition, the biofilms in the plate were washed, and then two wells of OG1RF biofilms and two wells of Δeep biofilms were removed by scraping manually with a pipette tip and resuspended in potassium phosphate buffered saline. These dislodged biofilm cell solutions were also diluted by serial 10-fold dilutions, and then aliquots of each dilution were plated on BHI agar plates to enumerate the viable bacteria present in each sample. Finally, the remainder of the biofilm wells were allowed to dry for several hours, and then the biomass in each well was stained with safranin. Excess safranin was washed away, and the plates were dried again. Biofilm biomass was quantified by reading the optical density of safranin-stained wells at OD450 nm.

[3] = system: E. faecalis OG1RF and Δeep biofilms; experiment: Viable cells in the treatment solution (supernatant) removed from biofilms, dispersal check; format: cell-based, Enterococcus faecalis; settings: 5 mg/ml hen egg white lysozyme, 3 h, 37° C., either strain
Description: To conduct this experiment, the number of viable cells that were present in the buffer or lysozyme solution that was removed from the biofilms following exposure was measured. If viable cells were dispersed from the biofilm following treatment, then one should be able to enumerate viable cells in the lysozyme solution removed from the treated wells.
In this experiment, biofilms of E. faecalis OG1RF and Δeep were grown in 96-well microtiter plates overnight. The biofilms were washed to remove non-adherent cells.

[4] = system: planktonic E. faecalis OG1RF and Δeep cells; experiment: Viability of planktonic logarithmic and stationary phase cells exposed to lysozyme; format: cell-based, Enterococcus faecalis; settings: 2.5 mg/ml lysozyme, 6 hours
Description: Early logarithmic cultures were prepared by diluting overnight cultures 1:100 in BHI broth. To obtain stationary phase cells, BHI broth was inoculated with 3 individual colonies and cultivated for about 18 hours. […] Cultures to which sterile water was added served as controls. Cultures were incubated at 37° C. for 6 hours.

[5] = system: E. faecalis strains DS16, FA2-2, JH2-2, VA1128, V583 and 39-5 biofilms; experiment: Biofilm biomass by safranin staining, laboratory strains and clinical isolates; format: cell-based, Enterococcus faecalis; settings: strains DS16, VA1128 and V583, methods of Example 1
Description: as §1, with “water. […] Following incubation, the lysozyme or buffer solutions were removed, and the wells were washed again as above.” for “water.”
E. faecalis strains DS16, FA2-2, JH2-2, and 39-5 are strains that have been used for laboratory experiments for many years, and E. faecalis strain V583 is a vancomycin-resistant strain that has become the prototype lab strain for studies of vancomycin-resistant E. faecalis. E. faecalis strain VA1128 is a clinical isolate.

[6] = system: E. faecalis strains DS16, FA2-2, JH2-2, VA1128, V583 and 39-5 biofilms; experiment: Viable cells (CFU) recovered from biofilms, laboratory strains and clinical isolates; format: cell-based, Enterococcus faecalis; settings: all tested strains, methods of Example 1
From the text: as §2

[7] = system: E. faecalis OG1RF biofilms; settings: cited from earlier work
E. faecalis OG1RF = settings: cited from earlier work
[8] = 128 μg/ml ampicillin in water, 3 h, OG1RF and Δeep

Human lysozyme: purified, recombinant human lysozyme available for purchase
increase in stained biomass ([1]; recombinant human lysozyme versus buffer): approximately 3.5 fold | decrease in viable cells ([2]; OG1RF and Δeep, recombinant human lysozyme): > 99.9% | reduction of viable cells recovered from biofilms ([2]; OG1RF, recombinant human lysozyme): 3.2 log 10 CFU/ml | reduction of viable cells recovered from biofilms ([2]; Δeep, recombinant human lysozyme): 4.0 log 10 CFU/ml

lysozyme: hen egg white lysozyme (EC 3.2.1.17), enzyme that hydrolyzes beta-1,4-linkages of bacterial cell wall peptidoglycan
increase in stained biomass among 0.156, 1.25 and 5 mg/ml ([1]; 1.25 mg/ml lysozyme): largest increase | biofilm biomass (safranin staining) versus buffer ([1]; 5 mg/ml hen egg white lysozyme, 3 h, 37° C., OG1RF and Δeep): increased biofilm biomass of equal magnitude for both strains; also recorded: increased equally for both strains; also recorded: greater than the staining in untreated wells | stained biomass at 6 hours compared to 3 hours ([1]; 5 mg/ml lysozyme, 37° C.): increased slightly | viable cells recovered from biofilm at 6 and 24 hours compared to 3 hours ([2]; 5 mg/ml lysozyme, 37° C.): dropped slightly | drop in viable cells recovered from biofilm ([2]; OG1RF, 5 mg/ml lysozyme, 3 h, difference in means of 3 biological replicates): 2.8 log 10 CFU/ml | decrease in viable biofilm cells ([2]; OG1RF, 5 mg/ml lysozyme): 99.8% | viability of biofilm cells versus untreated or buffer (in words) ([2]; lysozyme-treated OG1RF and Δeep biofilms): fewer living cells than the untreated strains; also recorded: displayed killing; also recorded: decreased the number of viable biofilm cells | decrease in viable biofilm cells ([2]; Δeep, 5 mg/ml lysozyme): 99.9% | viable cells in lysozyme supernatant [3]: no viable cells above the limit of detection | decrease in viable cells ([4]; OG1RF and Δeep, stationary phase): about 1.5 log 10 CFU/ml | decrease in viable cells ([4]; OG1RF, logarithmic growth): no decrease | biofilm biomass after treatment [5]: increased, to some extent | viable cells recovered from biofilms [6]: reduced the number of viable cells

CC1(C)S[C@@H]2[C@H](NC(=O)[C@H](N)c3ccccc3)C(=O)N2[C@H]1C(=O)O [ampicillin, reference compound]
change in biofilm biomass [1, 8]: no changes; also recorded: resistant to any effect | change in biofilm cell viability [2, 8]: no changes; also recorded: resistant to any effect | ampicillin concentration to which biofilms are resistant [7]: > 128 µg/mL | susceptibility in planktonic conditions (E. faecalis OG1RF): susceptible

Reference: patent publication US20200215169A1, “ANTIBACTERIAL METHODS AND RELATED KITS” (THE HENRY M. JACKSON FOUNDATION FOR THE ADVANCEMENT OF …, priority 2017, published 2020)
